Laboratory results reported in patent US20080200530A1 (priority 2005, published 2008).

Tests used:
[1] = test system: DOI-induced hypolocomotion; assay: Attenuation of DOI-induced hypolocomotion in rats; format: in vivo, rat; settings: 50 μmol/kg p.o., 60 min before DOI 0.3 mg/kg s.c.
Description: In this Example, compounds of the invention, such as Compound 1 and Compound 26, were tested for inverse agonist activity by determining whether these compounds could attenuate DOI-induced hypolocomotion in rats in a novel environment. DOI is a potent 5HT2A/5HT2C receptor agonist that crosses the blood-brain barrier.
Male Sprague-Dawley rats (Harlan, San Diego, Calif.) weighing between 200-300 g were used for all tests. Rats were housed three to four per cage. These rats were naive to experimental testing and drug treatment. Rats were handled one to three days before testing to acclimate them to experimental manipulation. Rats were fasted overnight prior to testing.
(R)-DOI HCl (C11H16INO2HCl) was obtained from Sigma-Aldrich, and was dissolved in 0.9% saline. […]
The “Motor Monitor” (Hamilton-Kinder, Poway, Calif.) was used for all activity measurement. This apparatus recorded rears using infrared photobeams. […]
In determining the effects of compounds of the invention on DOI-induced hypoactivity, animals were first injected with vehicle or the compound of the invention (50 μmol/kg) in their home cages. […] 10 min after DOI administration, animals were placed into the activity apparatus and rearing activity was measured for 10 minutes.
Results (total rears over 10 minutes) were analyzed by t-test. […]

[2] = biological target: T1, 5HT2A receptor (Rattus norvegicus, UniProt P14842); assay: 125I-LSD displacement from brain sections, autoradiography, cortex; format: binding, Sprague-Dawley rats; settings: 1 micromolar compound, 1 nanomolar 125I-LSD
T1 construct: from tissue; host or cells: Sprague-Dawley rat brain, horizontal cryostat sections (cerebral cortex)

[3] = test system: JC virus infection of human glial cells; settings: Elphick et al., Science (2004); cited from earlier work
[4] = biological target: T2, endogenous human 5-HT2C receptor (Homo sapiens, UniProt P28335)
T2 sequence (P28335 33-458): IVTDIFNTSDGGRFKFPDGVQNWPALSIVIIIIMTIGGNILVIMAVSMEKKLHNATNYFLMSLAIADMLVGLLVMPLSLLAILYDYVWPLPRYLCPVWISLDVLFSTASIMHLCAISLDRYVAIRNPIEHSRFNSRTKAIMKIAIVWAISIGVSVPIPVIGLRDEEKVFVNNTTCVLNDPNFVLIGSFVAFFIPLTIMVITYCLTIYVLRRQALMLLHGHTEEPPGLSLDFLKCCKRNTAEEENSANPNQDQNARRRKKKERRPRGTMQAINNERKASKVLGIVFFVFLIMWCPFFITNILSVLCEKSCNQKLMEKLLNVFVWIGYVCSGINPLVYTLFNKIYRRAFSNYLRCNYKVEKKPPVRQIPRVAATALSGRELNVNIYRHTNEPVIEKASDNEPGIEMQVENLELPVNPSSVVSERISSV

T1 sequence (P14842 whole entry): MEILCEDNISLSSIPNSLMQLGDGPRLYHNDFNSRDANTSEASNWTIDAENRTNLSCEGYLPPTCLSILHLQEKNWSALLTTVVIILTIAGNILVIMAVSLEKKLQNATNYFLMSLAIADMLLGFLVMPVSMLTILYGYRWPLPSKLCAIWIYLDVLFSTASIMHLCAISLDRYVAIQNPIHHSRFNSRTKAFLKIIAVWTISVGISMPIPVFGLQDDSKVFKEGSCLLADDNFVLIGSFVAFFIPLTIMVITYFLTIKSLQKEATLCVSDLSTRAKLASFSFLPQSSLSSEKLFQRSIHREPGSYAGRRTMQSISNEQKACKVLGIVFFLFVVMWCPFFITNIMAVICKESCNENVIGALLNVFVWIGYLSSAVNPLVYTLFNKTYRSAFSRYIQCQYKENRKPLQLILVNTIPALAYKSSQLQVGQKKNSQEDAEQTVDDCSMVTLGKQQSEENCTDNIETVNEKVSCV

| SMILES | effect on DOI-induced hypolocomotion (total rears over 10 minutes) [1] | JC virus infection of human glial cells [3] | further results |
| --- | --- | --- | --- |
| COc1ccc(NC(=O)Nc2ccc(Cl)cc2)cc1-c1c(Br)cnn1C [Compound 1, 1-[3-(4-Bromo-2-methyl-2H-pyrazol-3-yl)-4-methoxy-phenyl]-3-(4-chloro-phenyl)-urea] | attenuated DOI-induced hypolocomotion |  |  |
| COc1ccc(NC(=O)Nc2ccc(Cl)cc2)cc1-c1c(Cl)cnn1C [Compound 26, 1-[3-(4-Chloro-2-methyl-2H-pyrazol-3-yl)-4-methoxy-phenyl]-3-(4-chloro-phenyl)-urea] | attenuated DOI-induced hypolocomotion |  |  |
| COc1ccc(OC(=O)Nc2cccc(-c3c(Br)cnn3C)c2)cc1 [Compound S-1610, [3-(4-Bromo-2-methyl-2H-pyrazol-3-yl)-phenyl]-carbamic acid 4-methoxy-phenyl ester] |  |  | displacement of 125I-LSD from the cortex (5HT2A) [2]: selectively displace |
| Cc1nc2sccn2c(=O)c1CCN1CCC(=C(c2ccc(F)cc2)c2ccc(F)cc2)CC1 [Ritanserin] |  | inhibited |  |
| O=C(c1ccc(F)cc1)C1CCN(CCn2c(=O)[nH]c3ccccc3c2=O)CC1 [ketanserin] |  | inhibited |  |
| CN1CCN2c3ccccc3Cc3ccccc3C2C1 (stereo not shown) [mianserin] |  |  | inhibition of serotonin-stimulated [35S]GTPγS binding ([4]; 30 μM mianserin): inhibits this response; effect on basal constitutive binding of [35S]GTPγS ([4]; no agonist): partial inverse agonist |
